Data set [1] has as its target JAK3: Recombinant human kinase domain (Homo sapiens, UniProt P52333). As to the kind of experiment: Determination of IC50 of Janus Kinase (JAK) inhibition, radioactive end-point 33P-ATP assay, JAK3. It is filed as biochemical. The following applies: 0.5 nM or 0.2 nM JAK3, ATP 1.5 uM, peptide 50 uM, 20 minutes; read-out: IC50 h-jak3-sf21-c. The source says:
(§1) Determination of IC50 of Janus Kinase (JAK) Inhibition: […]

Data set [2] has as its target JAK2: Recombinant human kinase domain (Homo sapiens, UniProt O60674). As to the kind of experiment: Determination of IC50 of Janus Kinase (JAK) inhibition, radioactive end-point 33P-ATP assay, JAK2. It is filed as biochemical. The conditions noted are these: 1 nM JAK2, ATP 1.5 uM, peptide 50 uM, 20 minutes; read-out: IC50 h-jak2-sf21-c.
Source text: as §1

This is an account of results in patent publication US7902197B2, “Pyrrolopyrazine kinase inhibitors” (Roche Palo Alto LLC, priority 2008, dated 2011).

In general, IC50 refers to the concentration needed to halve the response being measured. As usually defined, the melting point is the temperature of the solid-liquid transition.

The structures appear in SMILES notation.

JAK3: Recombinant human kinase domain, sequence (P52333 822-1111 limits assumed): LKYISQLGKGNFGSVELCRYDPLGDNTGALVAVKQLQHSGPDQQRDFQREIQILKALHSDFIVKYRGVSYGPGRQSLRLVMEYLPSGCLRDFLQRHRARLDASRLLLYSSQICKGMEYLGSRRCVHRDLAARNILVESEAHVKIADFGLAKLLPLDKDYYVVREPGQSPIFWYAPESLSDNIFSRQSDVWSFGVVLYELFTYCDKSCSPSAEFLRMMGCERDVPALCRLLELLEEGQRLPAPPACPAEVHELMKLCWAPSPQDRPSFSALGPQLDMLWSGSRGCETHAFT
JAK2: Recombinant human kinase domain, sequence (O60674 849-1124 limits assumed): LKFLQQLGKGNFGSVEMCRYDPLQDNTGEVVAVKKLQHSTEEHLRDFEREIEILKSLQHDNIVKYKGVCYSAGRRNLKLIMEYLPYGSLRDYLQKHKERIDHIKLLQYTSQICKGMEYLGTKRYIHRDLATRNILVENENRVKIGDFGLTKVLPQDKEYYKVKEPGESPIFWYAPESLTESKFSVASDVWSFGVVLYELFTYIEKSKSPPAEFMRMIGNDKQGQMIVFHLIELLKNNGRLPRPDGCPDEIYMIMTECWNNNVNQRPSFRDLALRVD

Turning to `CC(C)NC(=O)c1c[nH]c2ncc(N(C)C3CCCC3)nc12` [Compound I-1, 2-(Cyclopentyl-methyl-amino)-5H-pyrrolo[2,3-b]pyrazine-7-carboxylic acid isopropylamide], the melting point lay within 277 to 278 °C. Moreover, the IC50 in data set [1] was 59.2 nM. The IC50 in data set [2] stood at 129 nM.

Turning to `CC(C)(C)C(=O)c1cnc2[nH]cc(C(=O)C(C)(C)C)c2n1` [Compound I-2, 1-[7-(2,2-Dimethyl-propionyl)-5H-pyrrolo[2,3-b]pyrazin-2-yl]-2,2-dimethyl-propan-1-one], the melting point is 188 to 198 °C.

Turning to `CC(C)(C)C(=O)c1c[nH]c2ncc(C(=O)NC3CCCC3)nc12` [Compound I-15, 7-(2,2-Dimethyl-propionyl)-5H-pyrrolo[2,3-b]pyrazine-2-carboxylic acid cyclopentylamide], the melting point fell in the range of 237.9 to 241.5 °C.

For the compound `CN1CCN(c2ccc(Nc3cnc4[nH]cc(C(=O)C(C)(C)C)c4n3)cc2)CC1` [Compound I-34, 2,2-Dimethyl-1-{2-[4-(4-methyl-piperazin-1-yl)-phenylamino]-5H-pyrrolo[2,3-b]pyrazin-7-yl}-propan-1-one], in data set [1], the IC50 turned out to be 471 nM.

In the case of `CN1CCN(c2cccc(Nc3cnc4[nH]cc(C(=O)C(C)(C)C)c4n3)c2)CC1` [Compound I-35, 2,2-Dimethyl-1-{2-[3-(4-methyl-piperazin-1-yl)-phenylamino]-5H-pyrrolo[2,3-b]pyrazin-7-yl}-propan-1-one], the IC50 in data set [1] amounted to 498 nM.
